Experiments:
[1] = tested on: normal photodamaged dermal or epidermal tissue; conditions: topical application; cited from earlier work
[2] = tested on: PBMC and pDC; experiment: cytokine production by PBMC and plasmacytoid dendritic cells (RT-PCR, ELISA); assay type: cell-based, human; conditions: added at 0.02% to 1% at the same time as TLR-7 agonists
Experimental: Cytokine production by plasmacytoid dendritic cells is measured using real-time RT-PCR on RNA collected from peripheral blood mononuclear cells (PBMC) including pDC (plasmacytoid dendritic cells).
An IRM (TLR-7 agonist) as described in one of the four embodiments of the present invention is introduced into a 24-well plate containing PBMC and pDC h Control wells are treated with DMSO. Cells are incubated for either one or two hours at 37° C. At the indicated times the cells are harvested by gently pipeting the cells into a 1.5 mL Eppendorf tube and centrifuging at 400 RCF for 10 min at 4° C. The supernatant is removed from the tube and the cells are lysed with 1 mL TRIzol (Life Technologies). […] RNA is quantified by absorbency (Abs260) and is reverse-transcribed using SuperScript First Strand Synthesis System for RT-PCR (Life Technologies). Primers for quantitative PCR are generated using Primer Express (PE Applied Biosystems). […] Quantitative PCR is performed on an ABI PRISM 7700 Sequence Detector. Amplified products are detected using SYBR Green PCR Master Mix (PE Biosystems). […] Relative quantitation of gene expression was performed using the DDCt method (User Bulletin #2, PE Applied Systems).
Cytokine and chemokine protein levels are measured from tissue culture supernatants or cell extracts using commercially-available enzyme-linked immuno assay (ELISA) kits. […]

[3] = tested on: aging skin; experiment: twelve-week clinical study, combined contemporaneous treatment with IRM and retinoid (2a); assay type: in vivo, human; conditions: contemporaneous application
Experimental: On Day 0, each enrolled subject is supplied with a package of individually coded tubes of cream, labeled “Tube A” and “Tube B”. Tube A contains one of two formulations: 5% IRM+vehicle (carrier); or vehicle only (placebo); Tube B contains either 0.025% tretinoin in a cream formulation or vehicle only (placebo). The subjects apply Tube A to the arms and face, wait 5 minutes, and then apply the contents of Tube B over the same area. Labels are randomly assigned with records separately maintained identifying the formulation. Codes are not known to either the subjects or the investigator until the study is completed and the data analyzed. All subjects receive Cetaphil cleanser, moisturizer and sunscreen for daily use throughout the study. The first application of Tube A and B is done in the presence of the study coordinator to ensure proper application. Written directions are given to the subjects to apply the products at the same time of day every day and to apply Tube B five minutes after applying Tube A.
Study participants apply the study creams once daily for 12 weeks. […]
Skin firmness (elasticity) is assessed using a ballistometer. Skin retention of water/skin moisture content is assessed via impedance measurements on the cheek area of subjects using a Novameter. Transepidermal water loss is measured using a Tewameter. Sebum secretion is measured using a Sebometer and Sebutape.

[4] = tested on: aging skin; experiment: clinical study, combined day/night treatment with IRM and retinoid (2b); assay type: in vivo, human; conditions: day/night application
Experimental: The above study is repeated except that the topical composition containing the IRM is applied in the morning and a topical composition containing tretinoin is applied at night. Standard 2-4 mm skin punch biopsies are taken at pre-identified sites (on subject's arms) on Day 0 and at the Week 12 visit. Subjects apply the assigned formulation in the presence of the investigator and return for a biopsy within 4-6 hours.

| SMILES | time until improved appearance (reduction in the appearance of fine lines and wrinkles) is visible [1] [weeks] | amount of IFN-γ expressed by PBMC cells upon exposure to the TLR-7 agonist [2] | Irritation (erythema and scaling) [3] | TEWL (Tewameter) [3] | Irritation (erythema and scaling) [4] | TEWL (Tewameter) [4] |
| --- | --- | --- | --- | --- | --- | --- |
| CC(C)Cn1cnc2c(N)nc3ccccc3c21 [Imiquimod, 1-isobutyl-1H-imidazo[4,5,-C]quinolin-4-amine] | ≤ 4 | – | – | – | – | – |
| CC1=C(/C=C/C(C)=C/C=C/C(C)=C/C(=O)O)C(C)(C)CCC1 [tretinoin, all-trans retinoic acid] | – | lowers | at all time points but maximally at the 2 and 4 week time points | increased TEWL | at all time points but maximally at the 2 and 4 week time points | increased TEWL |

Reference: patent publication US20130330322A1, “Methods of Treating Skin Aging With Toll-Like Receptor 7 Agonists” (Metabeauty, Inc., priority 2012, published 2013)
